Results reported in PMC8118430, “Utility of novel 2-furanones in synthesis of other heterocyclic compounds having anti-inflammatory activity with dual COX2/LOX inhibition” (Journal of Enzyme Inhibition and Medicinal Chemistry, 2021).
Read-outs that look alike come from different tables or passages of the source.

What was measured:
COX-1 = target: T1, COX-1 (Ovis aries, UniProt P05979); assay: Cyclooxygenase COX-1 inhibition assay (Cayman COX inhibitor screening kit, EIA)
T1 sequence (P05979 25-600): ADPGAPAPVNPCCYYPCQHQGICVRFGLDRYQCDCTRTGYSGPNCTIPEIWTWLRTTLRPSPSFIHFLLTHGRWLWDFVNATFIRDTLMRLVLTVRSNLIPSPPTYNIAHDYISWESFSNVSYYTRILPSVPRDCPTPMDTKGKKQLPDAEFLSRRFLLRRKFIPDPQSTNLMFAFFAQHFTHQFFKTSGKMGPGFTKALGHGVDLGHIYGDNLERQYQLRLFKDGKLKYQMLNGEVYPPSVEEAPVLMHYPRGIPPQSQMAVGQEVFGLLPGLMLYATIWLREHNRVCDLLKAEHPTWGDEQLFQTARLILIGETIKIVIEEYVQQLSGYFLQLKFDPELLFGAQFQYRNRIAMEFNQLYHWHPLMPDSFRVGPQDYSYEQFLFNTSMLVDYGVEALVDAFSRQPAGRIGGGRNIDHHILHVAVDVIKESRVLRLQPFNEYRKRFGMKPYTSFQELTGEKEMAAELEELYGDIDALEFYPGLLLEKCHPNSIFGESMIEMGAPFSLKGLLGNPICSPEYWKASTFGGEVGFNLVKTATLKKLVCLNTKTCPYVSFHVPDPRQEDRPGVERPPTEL
Description: (§1) Tested compounds were dissolved in DMSO. […] The COX inhibitor screening assay depends on direct measurement of the amount of PG2α produced in the COX reaction. […] Enzyme catalysis was terminated by addition of 50 µl 1 M HCl and 100 µl of the saturated stannous chloride solution. The PGs are quantified by enzyme immunoassay (EIA) at 410 nm.
(§2) Thus, the newly synthesised compounds were tested for their anti-inflammatory activity against isozymes COX-1 and COX-2, which were determined by the COX-catalysed transformation of AA into PGH2 that was reduced to PGF2α and detected by the EIA[53], as shown in Table 1.

COX-2 = target: T2, COX-2 (Homo sapiens, UniProt P35354); assay: Cyclooxygenase COX-2 inhibition assay (Cayman COX inhibitor screening kit, EIA); settings: for Selectivity indexes (SI): SI = IC50 COX-1/COX-2 ratios
T2 sequence (P35354 18-604): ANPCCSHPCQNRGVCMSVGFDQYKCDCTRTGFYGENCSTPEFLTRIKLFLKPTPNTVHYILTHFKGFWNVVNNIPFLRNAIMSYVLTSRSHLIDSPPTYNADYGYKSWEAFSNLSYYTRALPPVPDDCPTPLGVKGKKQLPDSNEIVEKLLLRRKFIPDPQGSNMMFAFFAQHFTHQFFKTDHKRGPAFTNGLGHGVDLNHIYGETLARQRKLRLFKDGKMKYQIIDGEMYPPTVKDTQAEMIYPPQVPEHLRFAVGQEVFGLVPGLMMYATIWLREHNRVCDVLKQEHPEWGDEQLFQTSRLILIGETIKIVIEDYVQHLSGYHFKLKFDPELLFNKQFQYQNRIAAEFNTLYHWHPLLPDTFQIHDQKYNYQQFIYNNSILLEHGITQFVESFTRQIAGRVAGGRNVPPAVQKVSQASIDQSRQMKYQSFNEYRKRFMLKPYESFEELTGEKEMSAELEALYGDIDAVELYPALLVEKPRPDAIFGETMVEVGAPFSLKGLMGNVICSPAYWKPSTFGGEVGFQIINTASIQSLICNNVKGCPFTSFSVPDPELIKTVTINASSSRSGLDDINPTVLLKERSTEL
Description: as §1, §2

TNF-α = target: T3, TNF-α (Homo sapiens, UniProt P01375); assay: TNFR2: TNF-α [biotinylated] inhibitor screening assay; type: binding; settings: mean ± SD of three experiments
T3 construct: purchased BPS Bioscience 79756
Description: The assay was performed in triplicates using TNFR2: TNF-α [biotinylated] […] First, TNFR2 is coated on a 96-well plate. Next, biotinylated TNF-α is incubated with TNFR2 on the plate. Finally, the plate was treated with streptavidin-HRP followed by addition of an HRP substrate to produce chemiluminescence, which can be measured using a chemiluminescence reader.

15-LOX = target: T4, 15-LOX (Glycine max, UniProt P08170); assay: Lipoxygenase (15-LOX) inhibition assay (Cayman LOX inhibitor screening kit); type: biochemical, soybean; settings: mean ± SD of three experiments
T4 construct: purchased Cayman Chemical 760700
T4 sequence (P08170 1-839): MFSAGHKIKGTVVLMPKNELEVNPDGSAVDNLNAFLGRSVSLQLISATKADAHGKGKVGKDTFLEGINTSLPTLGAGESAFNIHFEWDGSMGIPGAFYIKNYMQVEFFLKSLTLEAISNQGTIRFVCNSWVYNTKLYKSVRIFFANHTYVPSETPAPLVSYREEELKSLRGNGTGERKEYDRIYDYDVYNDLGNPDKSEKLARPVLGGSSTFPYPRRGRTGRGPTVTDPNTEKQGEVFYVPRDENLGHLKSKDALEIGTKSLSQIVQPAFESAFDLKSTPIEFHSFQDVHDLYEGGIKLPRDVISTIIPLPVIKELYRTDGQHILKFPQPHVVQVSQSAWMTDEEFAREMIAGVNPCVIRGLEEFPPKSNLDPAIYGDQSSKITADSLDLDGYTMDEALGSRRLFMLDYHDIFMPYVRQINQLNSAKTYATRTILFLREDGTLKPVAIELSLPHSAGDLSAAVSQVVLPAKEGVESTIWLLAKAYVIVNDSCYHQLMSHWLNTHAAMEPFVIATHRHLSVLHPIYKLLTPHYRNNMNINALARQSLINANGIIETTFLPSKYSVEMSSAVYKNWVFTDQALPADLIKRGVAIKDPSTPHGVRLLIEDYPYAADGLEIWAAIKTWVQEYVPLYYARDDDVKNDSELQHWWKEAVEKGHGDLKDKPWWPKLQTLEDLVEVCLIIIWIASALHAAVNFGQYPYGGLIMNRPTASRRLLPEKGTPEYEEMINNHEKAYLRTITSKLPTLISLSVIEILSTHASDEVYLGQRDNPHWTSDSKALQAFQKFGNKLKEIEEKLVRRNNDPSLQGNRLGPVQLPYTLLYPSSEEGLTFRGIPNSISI
Description: Briefly, in a 96-well plate, 10 µl of each test compound (dissolved in DMSO) or vehicle were pre-incubated with 90 µl of 15-LOX enzyme. The reaction was started by addition of 10 µl of substrate (AA) and the plate was shaken for at least 5 min. Then, 100 µl of chromogen supplied with the kit was added to each well to stop the enzymatic reaction and develop the colour. The absorbance was measured at 490 nm using microplate reader.
Therefore, the soybean LOX is most like the mammalian 15-LOX[59].

[1] = read-out: COX1 IC50, mean ± SD of three experiments
[2] = read-out: COX 2 IC50, mean ± SD of three experiments

T3 sequence (P01375 77-233 limits assumed): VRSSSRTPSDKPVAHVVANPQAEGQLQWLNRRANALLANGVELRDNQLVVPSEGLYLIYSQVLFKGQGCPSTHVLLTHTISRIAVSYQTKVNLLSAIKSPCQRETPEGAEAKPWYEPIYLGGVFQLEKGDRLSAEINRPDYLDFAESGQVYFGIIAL

SMILES	IC50 (COX-1) [nM]	IC50 (COX-2) [nM]	Selectivity indexes (SI) (COX-2)	IC50 (TNF-α) [nM]	melting point [°C]	IC50 (15-LOX) [nM]	COX-2 inhibition, in words (SAR discussion) (COX-2; qualitative statement)	times less active than the reference drug indomethacin as COX-1 inhibitor (COX-1; ratio of COX-1 IC50 values)	IC50 (COX-1; [1]) [nM]	IC50 (COX-2; [2]) [nM]
O=C(NCc1ccccc1)C(=Cc1ccccc1[N+](=O)[O-])CC(=O)c1ccc(Cl)c(Cl)c1 [Compound 4a, N-benzyl-2-(2-nitrobenzylidene)-4-(3,4-dichlorophenyl)-4-oxobutanamide]	11100 ± 150	50	221.40	4.77 ± 0.12	250 to 252	5470 ± 120				
NNC(=O)C(=Cc1cccc([N+](=O)[O-])c1)CC(=O)c1ccc(Cl)c(Cl)c1 [Compound 6b, 4-(3,4-Dichlorophenyl)-2-(3-nitrobenzylidene)-4-oxo-butanehydrazide]	10100 ± 150	80	125.88	4.1 ± 0.1	160 to 162	2470 ± 60	high activity			
O=C(CC(=Cc1cccc([N+](=O)[O-])c1)c1n[nH]c(=S)o1)c1ccc(Cl)c(Cl)c1 [Compound 9b, 1-(3,4-Dichlorophenyl)-4-(3-nitrophenyl)-3-(2-thioxo-4,5-dihydro-1,3,4-oxadiazol-5-yl)but-3-en-1-one]	10400 ± 120			4.33 ± 0.12		1630 ± 150				
O=C(NCc1ccccc1)C(=Cc1cccc([N+](=O)[O-])c1)CC(=O)c1ccc(Cl)c(Cl)c1 [Compound 4b, N-benzyl-2-(3-nitrobenzylidene)-4-(3,4-dichlorophenyl)-4-oxobutanamide]	13300 ± 150	60	222.17	3.53 ± 0.12	124 to 126	5870 ± 60				
O=C1NN(C(=O)c2ccccc2)C(c2ccc(Cl)c(Cl)c2)=CC1=Cc1ccccc1[N+](=O)[O-] [Compound 8a, 2-Benzoyl-5-(2-nitrobenzylidene)-3-(3,4-dichlorophenyl)-1H-pyridazin-6-one]	10800 ± 150	70	153.86	3.83 ± 1.44	222 to 224	2330 ± 510				
O=C1NN(C(=O)c2ccccc2)C(c2ccc(Cl)c(Cl)c2)=CC1=Cc1cccc([N+](=O)[O-])c1 [Compound 8b, 2-Benzoyl-5-(3-nitrobenzylidene)-3-(3,4-dichlorophenyl)-1H-pyridazin-6-one]	12670 ± 120	40	316.75	3.47 ± 0.06	150 to 152	2470 ± 60				
CN(C)c1ccc(Cc2cc(-c3ccc(Cl)c(Cl)c3)n[nH]c2=O)cc1 [Compound 7c, 3-(3,4-Dichlorophenyl)-5-[(4-dimethylaminopheny)l-methyl]-1H-pyridazin-6-one]			69.42	7.57 ± 0.06		4670 ± 60			8330 ± 60	120 ± 10

The next lines start with the values.

IC50 (COX-1) [nM]	IC50 (COX-2) [nM]	Selectivity indexes (SI) (COX-2)	IC50 (TNF-α) [nM]	melting point [°C]	IC50 (15-LOX) [nM]	COX-2 inhibition, in words (SAR discussion) (COX-2; qualitative statement)	times less active than the reference drug indomethacin as COX-1 inhibitor (COX-1; ratio of COX-1 IC50 values)	IC50 (COX-1; [1]) [nM]	IC50 (COX-2; [2]) [nM]	SMILES
11900 ± 100	50	238.00	5.47 ± 0.12	241 to 243	4670 ± 60					CN(C)c1ccc(C=C(CC(=O)c2ccc(Cl)c(Cl)c2)C(=O)NCc2ccccc2)cc1 [Compound 4c, N-benzyl-2-(4-dimethylaminobenzylidene]-4-(3,4-dichlorophenyl)-4-oxobutanamide]
11700 ± 120	90	130.33	3.57 ± 0.12	> 300	2970 ± 120					CN(C)c1ccc(C=C2C=C(c3ccc(Cl)c(Cl)c3)N(c3ccccc3)NC2=O)cc1 [Compound 5c, 6-(3,4-Dichlorophenyl)-4-(4-dimethylaminobenzylidene)-1-phenyl-1,4-dihydropyridazin-3(2H)-one]
3930 ± 60	420 ± 20	9.36	8.2 ± 0.1	204 to 206	6130 ± 120		39			CN(C)c1ccc(C=C2C=C(c3ccc(Cl)c(Cl)c3)OC2=O)cc1 [Compound 2c, 5-(3,4-Dichlorophenyl)3-(4-dimethylaminobenzylidene)-furan-2-one]
8370 ± 120	190 ± 10	44.05	5.93 ± 0.15	> 300	2330 ± 120					O=C1NC(c2ccc(Cl)c(Cl)c2)=CC1=Cc1ccccc1[N+](=O)[O-] [Compound 3a, 5-(3,4-Dichlorophenyl)-3-(2-nitrobenzylidene)-1H-pyrrol-2-one]
		26.68	8.17 ± 0.06		5870 ± 60			6670 ± 120	250 ± 10	O=c1[nH]nc(-c2ccc(Cl)c(Cl)c2)cc1Cc1cccc([N+](=O)[O-])c1 [Compound 7b, 3-(3,4-Dichlorophenyl)-5-[(3-nitropheny)l-methyl]-1H-pyridazin-6-one]
		41.35	8.53 ± 0.12		5470 ± 120			7030 ± 150	170 ± 10	O=c1[nH]nc(-c2ccc(Cl)c(Cl)c2)cc1Cc1ccccc1[N+](=O)[O-] [Compound 7a, 3-(3,4-Dichlorophenyl)-5-[(2-nitropheny)l-methyl]-1H-pyridazin-6-one]
